Measured values taken from patent publication US20190054054A1, “Methods reducing or preventing oxidation of high density lipoprotein (HDL)” (Amarin Pharmaceuticals Ireland Limited, priority 2017, published 2019).

What was measured:
[1] = Glucose-induced membrane lipid peroxidation (LOOH, CHOD-iodide assay) in DLPC/cholesterol vesicles (Examples 4 and 5); type: biochemical; conditions: each at 1.0 μM; glucose 200 mg/dL; 96 hours
Procedure: Vitamin E (α-tocopherol) was also purchased from Sigma-Aldrich and prepared in ethanol at 1.0 mM (e=[…] at 294 nm) just prior to experimental use. […] All test compounds were further diluted in ethanol or aqueous buffer as needed. Glucose was prepared in saline buffer (0.5 mM HEPES, 154 mM NaCl, pH 7.3) at 11.0 mM (200 mg/dL). CHOD-iodide color reagent (stock) was prepared, with slight modification, as described by from El-Saadani et al. (J. […] Samples were shell-dried under nitrogen gas and placed under vacuum for 1 h to remove residual solvent. […] Lipid suspensions were then vortexed for 3 min at ambient temperature to form MLVs. All MLV samples were subjected to time-dependent autoxidation by incubating at 37° C. in an uncovered, shaking water bath. This method allows lipid peroxidation to occur gradually without requiring the use of exogenous initiators. Small aliquots (5-100 μL) of each sample were removed, immediately following MLV preparation (0 hour) and after exposing samples to oxidative conditions for 72 or 96 hour, and combined with 1.0 mL of activated CHOD-iodide color reagent. Aliquot volume was reduced with each successive time point to ensure that spectrophotometric readings were within the optimal adsorption range. Test samples were covered and incubated in darkness at room temperature for at least 4 hr. Sample absorbances were then measured against a CHOD blank at 365 nm using a Beckman DU-640 spectrophotometer. The CHOD colorimetric assay is based on the oxidation of iodide (I^−) by lipid hydroperoxide (LOOH) to form triiodide (I3^−), the quantity of which is directly proportional to the amount of LOOH present in the lipid sample. The molar absorptivity (ε) of I3^− is 2.46×10^4 M^−1 cm^−1 at 365 nm. An experiment was conducted to compare the ability of EPA to prevent lipid hydroperoxide formation in model membranes treated with glucose to two other 20-carbon fatty acids: eicosanoic acid (“EA,” also referred to as arachidic acid, C20:0) and eicosatrienoic acid (“ETE,” C20:3, n-3). All MLV samples were subjected to time-dependent autoxidation by incubating at 37° C. in an uncovered, shaking water bath. This method allows lipid peroxidation to occur gradually without requiring the use of exogenous initiators. Small aliquots (5-100 μL) of each sample were removed, immediately following MLV preparation (0 hr) and after exposing samples to oxidative conditions for 72 or 96 hr, and combined with 1.0 mL of activated CHOD-iodide color reagent. Aliquot volume was reduced with each successive time point to ensure that spectrophotometric readings were within the optimal adsorption range. Test samples were covered and incubated in darkness at room temperature for at least 4 hr. Sample absorbances were then measured against a CHOD blank at 365 nm using a Beckman DU-640 spectrophotometer. The CHOD colorimetric assay is based on the oxidation of iodide (I^−) by lipid hydroperoxide (LOOH) to form triiodide (I3^−), the quantity of which is directly proportional to the amount of LOOH present in the lipid sample. The molar absorptivity (ε) of I3^− is 2.46×10^4 M^−1 cm^−1 at 365 nm.

human sdLDL = test: Copper-induced sdLDL oxidation, TBARS (Example 7); type: biochemical
Procedure: (§1) An experiment to study the antioxidant effect of EPA in LDL and small dense […] performed. […] Fenofibrate, gemfibrozil, and niacin were purchased from Sigma-Aldrich. […] Vitamin E was also incubated with sample aliquots as a positive control.

human LDL = test: Copper-induced oxidation of unfractionated LDL, TBARS (Example 7); type: biochemical
Procedure: as §1

[2] = system: rat renal glomerular endothelial cells; test: NO and ONOO^− release ex vivo from rat glomerular endothelial cells exposed to oxLDL and high glucose (Example 13); type: cell-based; conditions: oxLDL 11 mg/dL and glucose 300 mg/dL; treatment 1 hr at 10.0 μM; versus vehicle
Procedure: Healthy male Wistar Kyoto (WKY) rats, aged 7-9 weeks and weighing 250±20 g, were obtained from inbred colonies (National Institutes of Health, Bethesda, Md.). Animals were housed in a controlled environment that provided food and water ad libitum prior to the study. […] Animals were sacrificed and tissue samples obtained immediately for experimentation. All procedures were conducted in accordance with standard Institutional Animal Care and Use Committee guidelines and conformed to the Guide for the Care and Use of Laboratory Animals published by the US National Institutes of Health.
EPA and DHA were purchased from Sigma-Aldrich (St. Louis, Mo.) and solubilized in ethanol to 1.0 mM under nitrogen atmosphere. […] The calcium ionophore (Cal), A23187, was purchased from Sigma-Aldrich and prepared in aqueous buffer to 1.0 mM. All test compounds were further diluted in ethanol or aqueous buffer as needed.
Venous blood from healthy normolipidemic volunteers was collected into Na-EDTA (1 mg/mL blood) vacuum tubes after a 12-hour fast. […] The LDL fraction was dialyzed for 96 hours against PBS containing 0.3 mM EDTA and stored at 4° C. until experimental use.
LDL was oxidized according to the methods of Huber et al. 16 Briefly, the purified LDL fraction was dialyzed against Tris/NaCl Buffer (50 mM Tris in 0.15 M NaCl, pH 8.0) to remove EDTA. Additional buffer was added to adjust the protein concentration to 30 mg/mL. LDL oxidation was initiated with 20 μM CuSO4 and monitored spectrophotometrically (234 nm) over a period of 24 hours until complete. The oxLDL was then dialyzed at 4° C. with 4 L Tris buffer, filtered with a 0.22 µm filter, and stored under nitrogen at 4° C.
Immediately after sacrificing the rats, kidneys were removed, cut into […] sections and transferred to a separate organ chamber containing Dulbecco's phosphate buffered saline ([…]) and […] glucose at pH 7.4.
Concurrent measurements of NO and ONOO^− were performed on intact glomerular (cortical zone) endothelial cells using tandem electrochemical nanosensors, as previously described (FIG. 45).
The NO/ONOO^− nanosensor was positioned near the surface of the endothelial cells using a computer-controlled M3301 micromanipulator (x-y-z resolution of 0.2 μm) and microscope (both from World Precision Instruments, Berlin, Germany) fitted with a CD camera. Each analyte was measured from amperograms and standard calibration curves collected under maximum current. […] After establishing a background current, maximal NO and ONOO^− release was induced by injecting Cal into the organ chamber using a nanoinjector (World Precision Instruments, Berlin Germany). Changes in current (proportional to the molar concentrations of NO or ONOO^− released) were monitored continuously immediately following Cal stimulation.
Data are presented as mean+standard deviation (SD) for (N) separate samples or experiments. Differences between groups were analyzed using the unpaired, two-tailed Student's t-test (for comparisons between only two groups) or ANOVA followed by Student-Newman-Keuls multiple comparisons post hoc analysis (for comparisons between three or more groups). Only differences with probability values less than 0.05 were considered significant.

[3] = 10 mg, administered for 12 weeks; cited from earlier work
[4] = 80 mg for 16 weeks; 2,341 patients; cited from earlier work
HMG-CoA reductase = target: T1, HMG-CoA reductase (Homo sapiens, UniProt P04035); conditions: metabolized by hepatic cytochrome P450; cited from earlier work
T1 sequence (P04035 1-888): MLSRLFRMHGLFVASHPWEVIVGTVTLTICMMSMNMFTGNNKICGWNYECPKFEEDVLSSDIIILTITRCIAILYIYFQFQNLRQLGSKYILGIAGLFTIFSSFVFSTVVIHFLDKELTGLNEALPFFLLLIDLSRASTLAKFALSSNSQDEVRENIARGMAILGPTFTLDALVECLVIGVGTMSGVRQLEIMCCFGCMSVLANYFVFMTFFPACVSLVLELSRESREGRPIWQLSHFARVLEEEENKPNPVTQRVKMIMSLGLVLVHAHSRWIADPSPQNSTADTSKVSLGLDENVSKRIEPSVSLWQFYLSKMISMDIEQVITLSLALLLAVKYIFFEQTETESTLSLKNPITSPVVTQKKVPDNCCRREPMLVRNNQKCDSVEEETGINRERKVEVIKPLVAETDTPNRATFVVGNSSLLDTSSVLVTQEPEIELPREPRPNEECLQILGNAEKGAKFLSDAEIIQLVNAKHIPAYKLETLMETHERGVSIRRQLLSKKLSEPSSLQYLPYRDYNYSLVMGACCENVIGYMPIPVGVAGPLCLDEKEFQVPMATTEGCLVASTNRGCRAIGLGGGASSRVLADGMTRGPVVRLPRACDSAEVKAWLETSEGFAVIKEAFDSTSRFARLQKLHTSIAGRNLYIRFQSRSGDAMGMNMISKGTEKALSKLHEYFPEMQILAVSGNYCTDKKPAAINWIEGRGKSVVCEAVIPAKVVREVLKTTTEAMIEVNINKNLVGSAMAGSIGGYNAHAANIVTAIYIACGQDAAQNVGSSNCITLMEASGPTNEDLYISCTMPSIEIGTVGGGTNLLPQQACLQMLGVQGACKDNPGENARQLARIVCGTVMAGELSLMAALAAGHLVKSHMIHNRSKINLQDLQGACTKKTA

Structure (SMILES) | antioxidant effect, separate treatments [1] | inhibition of sdLDL oxidation as compared to vehicle (human sdLDL; 1.0 μM (each agent), 1 hr) [%] | inhibition of sdLDL oxidation as compared to vehicle (human sdLDL; ATM 0.5 μM, alone or in combination with EPA 1.0 μM, 1 hr) [%] | inhibition of sdLDL oxidation (human sdLDL; ATM at the highest dose, 1 hr) [%] | effect on unfractionated LDL oxidation, dose dependence (human LDL; 1 hour) | increase in NO release [2] [%] | reduction of ONOO^− release [2] [%] | antioxidant activity, separately (human sdLDL; 10.0 μM, sdLDL) | inhibition of sdLDL oxidation as compared to vehicle (human sdLDL; each agent at 10.0 μM, 1 hour (FIG. 17)) [%] | antioxidant activity, separately (human LDL; 10.0 μM, unfractionated LDL) | circulating levels of chlorotyrosine, nitrotyrosine, and dityrosine [3] | levels of oxidized lipids associated with all apoB100-containing lipid particles [4] | share of circulating HMG-CoA reductase inhibitory activity accounted for by the active metabolites (HMG-CoA reductase)
CC(C)c1c(C(=O)Nc2ccccc2O)c(-c2ccccc2)c(-c2ccc(F)cc2)n1CC[C@@H](O)C[C@@H](O)CC(=O)O [ATM, Atorvastatin ortho-(o-) hydroxy (active) metabolite] | separate and potent antioxidant effects | 18±5 | 5±5 | 90±2 | significant and dose-dependent inhibition of unfractionated LDL oxidation beginning at 1.0 μM | 205 | 25 |  |  |  |  |  | 
CC(C)c1c(C(=O)Nc2ccccc2)c(-c2ccccc2)c(-c2ccc(F)cc2)n1CC[C@@H](O)C[C@@H](O)CC(=O)O [atorvastatin] |  |  |  |  |  |  |  | did not have any significant antioxidant activity | 0.1±7 | did not have any significant antioxidant activity | significantly reduce circulating levels of chlorotyrosine, nitrotyrosine, and dityrosine | significant reduction in levels of oxidized lipids | approximately 70%
